Experimental findings from article PMC12799219, “In vitro and in vivo studies on the activity and selectivity of butoconazole in experimental infection by Trypanosoma cruzi” (Memórias do Instituto Oswaldo Cruz, 2026) are described below.

Each structure is given as a SMILES string. “And” between values parts separate entries of the source, which are not always exact repeats. Equal values may be shown once. “Also recorded” adds a separate entry of the source. Read-outs that look alike come from different tables or passages of the source.

Data set [1] deals with T. cruzi intracellular forms (Tulahuen strain). Description: In vitro activity on intracellular forms of T. cruzi in L929 cells (β-galactosidase/CPRG). Type of data set: cell-based, Trypanosoma cruzi. The conditions noted are these: for EC90: read-out: Activity against T. cruzi intracellular forms EC90. Here is the method: In vitro activity on intracellular forms of T. cruzi - L929 cells previously seeded in 96-well plates (4 x 10^3 cells/well) were infected (ratio of 10 parasites:1 host cell) for 2 h with trypomastigote forms (Tulahuen strain transfected with the β-galactosidase gene, DTU VI).

The nature of a further data set: in vitro. Type of data set: cell-based. The settings on record: rat, Toxicity on H9C2 mammalian cells LC50. Here is the method:
(§1) Mammalian cell cultures - L929 fibroblast lineage were cultured in Roswell Park Memorial Institute 1640 medium without phenol red (RPMI - Sigma-Aldrich, St. Louis, MO, USA), supplemented with 10% foetal bovine serum (FBS - Cultilab - SP - Brazil) and 2 mM glutamine (Sigma-Aldrich, St. Louis, MO, USA) with pH 7.2 - 7.4, as previously reported.[21] H9C2, cardiomyoblast cultures, were maintained in Dulbecco’s Modified Eagle’s Medium (DMEM) high glucose (4500 mg/L) medium supplemented (Sigma-Aldrich, St. Louis, MO, USA) with 10% FBS (Cultilab - SP -Brazil), 2 mM glutamine (Sigma-Aldrich, St. Louis, MO, USA) and 100 μg/mL penicillin/streptomycin (Sigma-Aldrich, St. Louis, MO, USA).[22] Both cell cultures maintained at 37 °C under an atmosphere of 5% CO2, with weekly dissociation protocol using 0.01% trypsin.
(§2) Cytotoxicity assay - The toxicity of the compounds was evaluated on two mammalian cell lines (L929 and H9C2), as reported.[21] The cells were seeded in 96-well plates (4 x 10^3 cells/well - for L929; 25x10^3 cells/well - for H9C2) and incubated at 37 °C and 5% CO2. The L929 cultures were kept under treatment for 96 and 168 h with a serial dilution (1:2) of the compounds (up to 400 μM). After the treatment periods, the AlamarBlue® reagent (Thermo Fisher Scientific Inc) was added and incubated for 24 h. The H9C2 cultures were also treated in serial dilution up to 200 μM for 24 h. PrestoBlue® reagent (Thermo Fisher Scientific Inc) was added to the cultures and incubated for 3 h. All plates were analysed in the spectrophotometer SpectraMaxM3 (570 and 600 nm) and LC50 values (concentration capable of inducing loss of viability in 50% of the cells) determined.[21] All assays were done at least twice, in triplicates.

The subject of the next data set is H9C2 mammalian cells. As to the kind of experiment: cells. Type of data set: cell-based. The conditions noted are these: for EC50: Rattus norvegicus, H9c2, 24 h, read-out: Toxicity on H9C2 mammalian cells pEC50 (converted). Here is the method:
as §1, §2

Data set [2] deals with T. cruzi intracellular forms (Tulahuen strain) in L929 cell lines. Description: Washout assay in L929 cultures infected with T. cruzi. Type of data set: cell-based, Trypanosoma cruzi. The conditions noted are these: 10 µM for 168 h, then 168 h drug-free. The method, then:
Washout assays in L929 cultures infected with T. cruzi - L929 cultures were infected with Tulahuen strain as above described and incubated or not for 168 h with 10 µM of BZ and BTZ (37 °C/5% CO2). RPMI culture medium (containing the tested compounds) was replaced every 72 h. Then, the cultures were rinsed with 0.1M PBS, and the drug-free culture medium added for another 168 h, replacing it every 72 h. The number of parasites released into the supernatant and of intracellular forms were analysed by light microscopy and by spectrophotometry (570 nm) after adding CPRG, respectively. The results were expressed as the percentage of reduction in parasite growth compared to untreated cells. BZ was used as a positive treatment control.[25] The data results from two independent experiments done in at least triplicate.

Data set [3] concerns T. cruzi bloodstream trypomastigotes (Y strain). Description: Mouse model of acute T. cruzi infection: parasitaemia and mortality. The format is in vivo, Swiss male mice. The conditions noted are these: for mortality (cumulative death) / parasitaemia peak decline at the 8 dpi: assay 1: BZ 25 mg/kg/day p.o., BTZ 45.61 mg/kg/day i.p.; for mortality (cumulative death) / parasitaemia reduction: five days; for parasitaemia peak decline at the 8 dpi: five days from 5 dpi; for animal mortality: assay 2, lower doses: BZ 10 mg/kg/day p.o. Here is the method: In vivo analysis in a mouse model of acute T. cruzi infection - Swiss male mice (18 - 20 g) were obtained from the Institute of Sciences and Technologies in Biomodels (ICTB-FIOCRUZ), housed with a maximum of 5 animals per cage and kept in a specific pathogen-free (SPF) room at 20 - 24 °C under a 12 h light/dark cycle. All animals received sterilised water and food ad libitum. The animals were acclimatised for seven days before the experiments. For a proof-of-concept study, animals were infected by i.p (1x10^4) with bloodstream trypomastigotes (Y strain). The drugs administration started at the onset of parasitaemia (5th day dpi), only using mice with detectable parasitaemia.[19] ^, [28] Control mice groups were age-matched and housed under identical conditions. The following experimental groups were used ≥ 3 mice per group: untreated (infected vehicle-treated control) and treated orally (p.o) with BZ (10, 25 and 100 mg/kg/day), corresponding to suboptimal and optimal doses of the reference drug; infected and treated with BTZ (i.p) using concentrations adjusted to be equimolar to BZ doses (18.24, 45.61 and 182.44 mg/kg/day). Also, the following combo was administered: BZ (10 mg/kg/day/p.o) + BTZ (18.24 mg/kg/day/i.p). The animals received the drugs once a day for five consecutive days. A […] optimal dose of BZ (10 mg/kg/day) was chosen to clearly observe any benefit of its association with BTZ. The i.p. route for BTZ was chosen due to its low aqueous solubility.
Parasitaemia and mortality rate - Parasitaemia was performed by collecting 5 μL of the blood from the tail’s vein, disposing it on a slide and covering with coverslips (18 x 18 mm) for direct counting of parasites observed in 50 fields under light microscope (40X magnification).[19] ^, [28] The mortality was followed daily up to 30 days after the end of treatment and expressed as a percentage of cumulative mortality (% CM).[19] ^, [27] In vivo assays were conducted with n = 5 per group.

Setting [4] is: Trypanosoma cruzi, TULAHUEN, L929, 96 h, read-out: Activity against T. cruzi intracellular forms EC50, Tulahuen strain in L929, 96 h.
[5] abbreviates: assay 2, higher doses: BZ 100 mg/kg/day p.o., BTZ 182.44 mg/kg/day i.p.
The mark [6] stands for this setting: assay 2, lowest doses: BZ 10 mg/kg/day p.o., BTZ 18.24 mg/kg/day i.p.

For `O=C(Cn1ccnc1[N+](=O)[O-])NCc1ccccc1` [BZ, benznidazole], the EC50 in data set [1] (setting [4]) came out at 1.73 ± 0.16 µM. The EC90 in data set [1] (Trypanosoma cruzi, TULAHUEN, L929, 96 h) came out at 7.65 ± 1.69 µM. For the same compound, the EC50 in data set [1] (Trypanosoma cruzi, TULAHUEN, L929, 96 h, read-out: Activity against T. cruzi intracellular forms pEC50, Tulahuen strain in L929, 96 h (converted)) was 1.74 µM. This compound also displayed a CC50 at 24 h in the data set “in vitro” above 200 µM. In addition, the EC50 with H9C2 mammalian cells was above 200 µM. Moreover, in data set [2], the “Washout: reduction in the number of intracellular forms” value came out at 98.6 ± 1.4% and the “Washout: reduction in the number of released parasites” value is 100 ± 0%. In data set [3], the “mortality (cumulative death)” value is listed as 0% and the “parasitaemia peak decline at the 8 dpi” value is recorded as 93%. Further, in data set [3] (setting [5]), the animal survival came out at 100% and the parasitaemia reduction result is listed as “suppressed the peak; also recorded: fully suppressed parasitaemia”. In addition, in data set [3] (BTZ 18.24 mg/kg/day i.p.), the animal mortality was 100%. Moreover, the parasitaemia reduction entry in data set [3] (setting [6]) is listed as “only slightly”.
For `Clc1ccc(CCC(Cn2ccnc2)Sc2c(Cl)cccc2Cl)cc1` (stereo not shown) [BTZ, butoconazole], the EC50 in data set [1] (Trypanosoma cruzi, TULAHUEN, L929, 96 h, Tulahuen strain in L929, 96 h, read-out: Activity against T. cruzi intracellular forms pEC50 (converted)) was 0.0708 µM; in data set [1] (setting [4]) it was 0.075 µM; in data set [1] (Tulahuen strain in L929, 96 h, read-out: Activity against T. cruzi intracellular forms EC50) it was 0.07 ± 0.02 µM; with H9C2 mammalian cells, 37.2 µM. For the same compound, the EC90 in data set [1] (Trypanosoma cruzi, Tulahuen strain in L929, 96 h) was found to be 3.88 ± 0.45 µM. In “in vitro”, this compound had a CC50 at 24 h of 36 ± 0.25 µM. In addition, half-maximal cytotoxicity in the data set with H9C2 mammalian cells (rat, 24 h) (CC50) was put at 36.36 ± 0.25 µM. For the same compound, in data set [2], the “Washout: reduction in the number of intracellular forms” value was > 96% and 96 - 98% and 96 ± 4%. For the same compound, in data set [2], the “Washout: reduction in the number of released parasites” value is 100 ± 0%. Also, in data set [3], the “mortality (cumulative death)” value is listed as 40%. In addition, the “parasitaemia peak decline at the 8 dpi” value in data set [3] was found to be 50%. The compound also registered an animal survival in data set [3] (setting [5]) of 100%. Moreover, the parasitaemia reduction in data set [3] (setting [5]) was 63%; in data set [3] (setting [6]), “only slightly”. In data set [3] (BTZ 18.24 mg/kg/day i.p.), this compound showed an animal mortality of 75%.
